Legend:
[1] = system: PrP^Sc in GT1 cells chronically infected with RML prion (ScGT1); assay type: cell-based, mouse; conditions: drug 20 μM, 4 days, vs vehicle control, densitometry normalized to β-actin
[2] = system: PrP^Sc in GT1 cells chronically infected with 22L prion strain (ScGT1 22L); assay type: cell-based, mouse; conditions: ScGT1 cells infected with 22L prion strain, drug 20 μM, 4 days, vs vehicle control
[3] = system: PrP^Sc in N2a cells chronically infected with RML prion strain (ScN2a); assay type: cell-based, mouse
[4] = system: N2a, ScN2a, GT1, ScGT1 cells

| Compound | reduction of PrP^Sc accumulation/levels [1] | reduction of PrP^Sc levels [2] [%] | reduction in PrP^Sc levels ([3]; RML-infected ScN2a cells, drug 20 μM, 4 days, vs vehicle control) [%] | PrP^Sc reduction with compound dissolved in different drug vehicles ([3]; ScN2a cells, vehicles PBS, H2O, NaCl and DMSO) | citotoxicity assessment [4] |
| --- | --- | --- | --- | --- | --- |
| Nc1c(C(=O)c2ccc[nH]2)cnn1-c1ccc(F)cc1 [Compound G] | about 50% |  |  |  |  |
| Nc1c(C(=O)C2CCNCC2)cnn1-c1ccc(OC(F)(F)F)cc1 [Compound 5, [5-Amino-1-(4-trifluoromethoxy-phenyl)-1H-pyrazol-4-yl]-piperidin-4-yl-methanone] | about 60% | 35 | 60 | able to reduce PrP^Sc in all drug vehicles tested |  |
| Nc1c(C(=O)c2c[nH]c3ccccc23)cnn1-c1ccccc1 [Compound 3, (5-Amino-1-phenyl-1H-pyrazol-4-yl)-(1H-indol-3-yl)-methanone] |  |  |  |  | discarded |
